Test system: L-687,414-induced hyperlocomotion
Assay: Reversal of L-687,414-induced hyperlocomotion (Digiscan locomotor activity)
Assay type: in vivo, mouse
Conditions: Mus musculus, 0.5 h; dose ip 30 mg/kg at the same time as s.c. 50 mg/kg L-687,414; horizontal activity over 30 min
Excerpt: The authors described that hyperlocomotion induced by L-687,414 was inhibited by a series of known antipsychotic drugs. […] These findings predict antipsychotic activity for the present compounds, making them useful for the treatment of positive (psychosis) and negative symptoms of schizophrenia, substance abuse, alcohol and drug addiction, obsessive-compulsive disorders, cognitive impairment, bipolar disorders, mood disorders, major depression, resistant depression, anxiety disorders, Alzheimer's disease, autism, Parkinson's disease, chronic pain, borderline personality disorder, sleep disturbances, chronic fatigue syndrome, stiffness, antiinflammatory effects in arthritis and balance problems.
The described compounds of formula I reduce L-687,414-induced hyperlocomotion. This was assessed by using a computerized Digiscan 16 Animal Activity Monitoring System (Omnitech Electronics, Columbus, Ohio) to quantify locomotor activity. Animals were kept under a 12 h light/dark cycle and experiments were performed during the light period. Each activity monitoring chamber consisted of a Plexiglas box (41×41×28 cm; W×L×H) with sawdust bedding on the floor surrounded by invisible horizontal and vertical infrared sensor beams. The test boxes were divided by a Plexiglas cross providing each mouse with 20×20 cm of moving space. Cages were connected to a Digiscan Analyzer linked to a computer that constantly collected the beam status information. Records of photocell beam interruptions for individual animals were taken every 5 min over the duration of the experimental session and the sum of the first 6 periods was used as the final parameter. Compounds were administered either p.o. 15 min before a s.c. injection of 50 mg/kg of L-687,414, or i.p. at the same time as a s.c. injection of 50 mg/kg of L-687,414. Mice were then transferred from their home cage to the recording chambers for a 15-min habituation phase allowing free exploration of the new environment. Horizontal activity was then recorded for a 30-min time period. The % inhibition of L-687,414-induced hyperlocomotion was calculated according to the equation: ((Veh+L-687,414 horizontal activity−drug+L-687,414 horizontal activity)/Veh+L−687,414 horizontal activity)×100
ID50 values, defined as doses of each compound producing 50% inhibition of L-687,414-induced hyperlocomotion, were calculated by linear regression analysis of a dose-response data using an Excel-based computer-fitting program.
As data was not presupposed to be normally distributed, groups treated with test compounds were statistically compared with the control (vehicle-treated) group using one-tailed Mann Whitney U tests. In statistics, the Mann-Whitney U test (also called the Mann-Whitney-Wilcoxon (MWW) or Wilcoxon rank-sum test) is a non-parametric statistical hypothesis test for assessing whether one of two samples of independent observations tends to have larger values than the other. It is one of the most well-known non-parametric significance tests. […] P values given in table 1 are one-tailed since only decreases in locomotion were expected and tested for (Mann, H. B., Whitney, D. R. (1947), “On a Test of Whether one of Two Random Variables is Stochastically Larger than the Other”, Annals of Mathematical Statistics, 18 (1), 50-60).

Going from `CN1C(=O)C(C)(C)c2ccc(-c3cnc(-c4ccncc4)[nH]3)cc21` [Example 3, 1,3,3-Trimethyl-6-(2-(pyridin-4-yl)-1H-imidazol-5-yl)indolin-2-one] to `CN1C(=O)C(C)(C)c2ccc(-n3cnc(-c4ccncc4)c3)cc21` [Example 20, 1,3,3-Trimethyl-6-(4-(pyridin-4-yl)-1H-imidazol-1-yl)indolin-2-one], the inhibition in vivo at 30 mg/kg rises from 58.9% to 64.4%.

Going from `CN1C(=O)C(C)(C)c2ccc(-c3cnc(-c4cccnc4)o3)cc21` [Example 7, 1,3,3-Trimethyl-6-(2-(pyridin-3-yl)oxazol-5-yl)indolin-2-one] to `CC1(C)C(=O)N(C2CC2)c2cc(-c3cnc(-c4cccnc4)o3)ccc21` [Example 8, 1-Cyclopropyl-3,3-dimethyl-6-(2-(pyridin-3-yl)oxazol-5-yl)indolin-2-one], the inhibition in vivo at 30 mg/kg falls from 83.9% to 80.5%.

Going from `CC1(C)C(=O)N(C2CC2)c2cc(-c3cnc(-c4ccncc4)o3)ccc21` [Example 10, 1-Cyclopropyl-3,3-dimethyl-6-(2-(pyridin-4-yl)oxazol-5-yl)indolin-2-one] to `Cc1cc(-c2cnc(-c3ccc4c(c3)N(C3CC3)C(=O)C4(C)C)o2)ccn1` [Example 19, 1-Cyclopropyl-3,3-dimethyl-6-(5-(2-methylpyridin-4-yl)oxazol-2-yl)indolin-2-one], the inhibition in vivo at 30 mg/kg falls from 78.8% to 55.9%.

First: CC1(C)C(=O)N(C2COC2)c2cc(-c3nnc(-c4ccncc4)o3)ccc21 [Example 11, 3,3-Dimethyl-1-(oxetan-3-yl)-6-(5-(pyridin-4-yl)-1,3,4-oxadiazol-2-yl)indolin-2-one]
Second: CC1(C)C(=O)N(C2COC2)c2cc(-n3cc(-c4cccnc4)cn3)ccc21 [Example 43, 3,3-Dimethyl-1-(oxetan-3-yl)-6-(4-(pyridin-3-yl)-1H-pyrazol-1-yl)indolin-2-one]
The inhibition in vivo at 30 mg/kg of the first is higher: 80.9% for the first, 47.3% for the second.

Going from `Cc1cc(-c2ncc(-c3ccc4c(c3)N(C)C(=O)C4(C)C)o2)ccn1` [Example 22, 1,3,3-Trimethyl-6-(2-(2-methylpyridin-4-yl)oxazol-5-yl)indolin-2-one] to `Cc1cc(-c2cnn(-c3ccc4c(c3)N(C)C(=O)C4(C)C)c2)ccn1` [Example 54, 1,3,3-Trimethyl-6-(4-(2-methylpyridin-4-yl)-1H-pyrazol-1-yl)indolin-2-one], the inhibition in vivo at 30 mg/kg falls from 55.9% to 41.6%.

Compared with `CN1C(=O)C(C)(C)c2ccc(-n3cc(-c4cccnc4)cn3)cc21` [Example 41, 1,3,3-Trimethyl-6-(4-(pyridin-3-yl)-1H-pyrazol-1-yl)indolin-2-one], `CN1C(=O)C(C)(C)c2ccc(-c3cnn(-c4cccnc4)c3)cc21` [Example 50, 1,3,3-Trimethyl-6-(1-(pyridin-3-yl)-1H-pyrazol-4-yl)indolin-2-one] is lower in inhibition in vivo at 30 mg/kg: 50.3% for the first, 44% for the second.

Compared with `CN1C(=O)C(C)(C)c2ccc(-c3coc(-c4cccnc4)n3)cc21` [Example 44, 1,3,3-Trimethyl-6-(2-(pyridin-3-yl)oxazol-4-yl)indolin-2-one], `Cc1cnccc1-n1cnc(-c2ccc3c(c2)N(C)C(=O)C3(C)C)c1` [Example 88, 1,3,3-Trimethyl-6-(1-(3-methylpyridin-4-yl)-1H-imidazol-4-yl)indolin-2-one] is higher in inhibition in vivo at 30 mg/kg: 52.1% for the first, 93.1% for the second.

Compared with `CC1(C)C(=O)Nc2cc(-n3cc(-c4cccnc4)cn3)ccc21` [Example 51, 3,3-Dimethyl-6-(4-(pyridin-3-yl)-1H-pyrazol-1-yl)indolin-2-one], `CC1(C)C(=O)N(C2CC2)c2cc(-n3cc(-c4cccnc4)cn3)ccc21` [Example 52, 1-Cyclopropyl-3,3-dimethyl-6-(4-(pyridin-3-yl)-1H-pyrazol-1-yl)indolin-2-one] is higher in inhibition in vivo at 30 mg/kg: 61% for the first, 82.1% for the second.

Going from `Cc1cc(-c2cnn(-c3ccc4c(c3)N(C3CC3)C(=O)C4(C)C)c2)ccn1` [Example 55, 1-Cyclopropyl-3,3-dimethyl-6-(4-(2-methylpyridin-4-yl)-1H-pyrazol-1-yl)indolin-2-one] to `Cc1ccc(-c2cnn(-c3ccc4c(c3)N(C3CC3)C(=O)C4(C)C)c2)cn1` [Example 69, 1-Cyclopropyl-3,3-dimethyl-6-(4-(6-methylpyridin-3-yl)-1H-pyrazol-1-yl)indolin-2-one], the inhibition in vivo at 30 mg/kg rises from 42.7% to 53.3%.

Going from `CN1C(=O)C(C)(C)c2ccc(-n3cc(-c4ccncc4)nn3)cc21` [Example 57, 1,3,3-Trimethyl-6-(4-(pyridin-4-yl)-1H-1,2,3-triazol-1-yl)indolin-2-one] to `Cc1nc(-c2ccc3c(c2)N(C)C(=O)C3(C)C)cn1-c1ccncc1` [Example 77, 1,3,3-Trimethyl-6-(2-methyl-1-(pyridin-4-yl)-1H-imidazol-4-yl)indolin-2-one], the inhibition in vivo at 30 mg/kg rises from 89.2% to 89.4%.

First: COc1cnccc1-c1ncc(-c2ccc3c(c2)NC(=O)C3(C)C)o1 [Example 63, 6-(2-(3-Methoxypyridin-4-yl)oxazol-5-yl)-3,3-dimethylindolin-2-one]
Second: Cc1ccc(-c2cc(-c3ccc4c(c3)N(C)C(=O)C4(C)C)n[nH]2)cn1 [Example 80, 1,3,3-Trimethyl-6-(5-(6-methylpyridin-3-yl)-1H-pyrazol-3-yl)indolin-2-one]
The inhibition in vivo at 30 mg/kg of the first is higher: 75% for the first, 62.6% for the second.

Compared with `Cc1cc(-n2cnc(-c3ccc4c(c3)N(C3CC3)C(=O)C4(C)C)c2)ccn1` [Example 74, 1-Cyclopropyl-3,3-dimethyl-6-(1-(2-methylpyridin-4-yl)-1H-imidazol-4-yl)indolin-2-one], `Cc1cnccc1-n1cnc(-c2ccc3c(c2)N(C2CC2)C(=O)C3(C)C)c1` [Example 89, 1-Cyclopropyl-3,3-dimethyl-6-(1-(3-methylpyridin-4-yl)-1H-imidazol-4-yl)indolin-2-one] is lower in inhibition in vivo at 30 mg/kg: 71.4% for the first, 58.5% for the second.

Same assay, conditions: dose ip 30 mg/kg at the same time as s.c. 50 mg/kg L-687,414; horizontal activity over 30 min

First: 1,3,3-Trimethyl-6-(3-pyridin-4-yl-isoxazol-5-yl)-1,3-dihydro-indol-2-one [Example 42]
Second: 1,3,3-Trimethyl-6-(4-(pyridin-3-yl)-1H-imidazol-1-yl)indolin-2-one [Example 29]
The “Inhibition, ip” value of the first is lower: 58.4% for the first, 80.3% for the second.

Compared with “1-Cyclopropyl-3,3-dimethyl-6-(2-(2-methylpyridin-4-yl)oxazol-5-yl)indolin-2-one [Example 12]”, “3,3-Dimethyl-6-[1-(2-methyl-4-pyridyl)imidazol-4-yl]-1-(2-methylpyrimidin-5-yl)indolin-2-one [Example 113]” is higher in “Inhibition, ip” value: 49.1% for the first, 69.9% for the second.

For “6-[1-(3-Fluoro-4-pyridyl)imidazol-4-yl]-3,3-dimethyl-1-(2-methylpyrimidin-5-yl)indolin-2-one [Example 110]”, the “Inhibition, ip” value was 85.4%.

Same assay, conditions: dose producing 50% inhibition of L-687,414-induced hyperlocomotion; p.o. 15 min before s.c. 50 mg/kg L-687,414; doses 1-3-10 (Expl. 2: 3-10-30) mg/kg

Compared with `CN1C(=O)C(C)(C)c2ccc(-c3ncc(-c4ccccc4)[nH]3)cc21` [Example 2, 1,3,3-Trimethyl-6-(5-phenyl-1H-imidazol-2-yl)indolin-2-one], `CN1C(=O)C(C)(C)c2ccc(-c3cn(-c4ccncc4F)cn3)cc21` [Example 73, 6-(1-(3-Fluoropyridin-4-yl)-1H-imidazol-4-yl)-1,3,3-trimethylindolin-2-one] is 3.6-fold lower in ID50 po: 10.71 mg/kg for the first, 2.97 mg/kg for the second.

`Cc1ccc(-c2ncc(-c3ccc4c(c3)N(C3CC3)C(=O)C4(C)C)o2)cn1` [Example 33, 1-Cyclopropyl-3,3-dimethyl-6-(2-(6-methylpyridin-3-yl)oxazol-5-yl)indolin-2-one] and `Cc1cc(-c2nnc(-c3ccc4c(c3)N(C3COC3)C(=O)C4(C)C)o2)ccn1` [Example 49, 3,3-Dimethyl-6-(5-(2-methylpyridin-4-yl)-1,3,4-oxadiazol-2-yl)-1-(oxetan-3-yl)indolin-2-one] are within 1.5-fold of each other in ID50 po: 3.36 mg/kg for the first, 5.02 mg/kg for the second.

For `CC1(C)C(=O)N(C2CC2)c2cc(-c3cn(-c4ccncc4F)cn3)ccc21` [Example 76, 1-Cyclopropyl-6-(1-(3-fluoropyridin-4-yl)-1H-imidazol-4-yl)-3,3-dimethylindolin-2-one], the ID50 po was <1 mg/kg.

Reference: patent publication US10385050B2, “Indolin-2-one and 1,3-dihydro-pyrrolo[3,2-c]pyridin-2-one derivatives” (Hoffmann-La Roche Inc., priority 2014, dated 2019)
